The test system of one data set is tumors. The experiment in a line: Antitumor activity (general statement). Conditions: no test described.
For data set [1], the system named is bacteria (especially gram positive bacteria). Briefly: Antibiotic activity (general statement). Format: cell-based. Conditions: inhibiting the growth of bacteria.
For a further data set, the system named is Klebsiella oxytoca. The experiment in a line: Agar dilution MIC. Type of data set: cell-based. Conditions: A No. 203454, 37° C., 18 hours. The method, then: (§1) The following methodology was used to determine the minimum inhibitory concentration (hereinafter referred to as the "MIC") of the compounds of this invention. The test organisms were grown in 20 mL of Antibiotic Assay Broth (Difco) by inoculating the broth (in tubes) with a loopful of the organism from a BHI (Difco) agar slant. The inoculated tubes were incubated at 37° C. for 18 to 24 hours. These cultures were assumed to contain 10^9 colony forming units (CFU) per mL. The cultures were diluted 1:100 to give a final inoculum level of 10^7 CFU per mL; dilutions were made with Yeast Beef Broth (Difco). The antibiotics Hayumicin A and Hayumicin B of the present invention were dissolved in suitable diluents at a concentration of 1000 μg/mL. Two-fold dilutions were made in Yeast Beef Broth (Difco), resulting in a range from 1000 μg/mL to 0.5 μg/mL. A 1.5 mL portion of each dilution was placed into individual petri dishes to which 13.5 mL of K-10 agar was added. The composition of K-10 agar is:
(§2) The final drug concentration in agar of Hayumicin A or Hayumicin B ranged from […] to 0.05 μg/mL. Organism growth control plates containing agar only were prepared and inoculated before and after the test plates. The organisms were applied to the surface of each plate so that each contained a final inoculum of 10^5 CFU. The plates were incubated at 37° C. for 18 hours and the MICs determined. The MIC is the lowest concentration of compound inhibiting growth of the organism.
(In agar dilution, organisms are placed on agar that contains the substance at set levels.)

The subject of a further data set is Pseudomanas aeruginosa. The experiment in a line: Agar dilution MIC. Type of data set: cell-based. Conditions: A No. 21508, 37° C., 18 hours. The procedure:
as §1, §2

A further data set relates to Streptococcus agalactiae. The experiment in a line: Agar dilution MIC. Type of data set: cell-based. The note with it: A No. 22567, 37° C., 18 hours. The method, then:
as §1, §2

Another data set has as its system Micrococcus luteus. The experiment in a line: Agar dilution MIC. Format: cell-based. Conditions: A No. 9852, 37° C., 18 hours. The method, then:
as §1, §2

A further data set relates to Proteus mirabilis. The experiment in a line: Agar dilution MIC. Format: cell-based. The note with it: A No. 9900, 37° C., 18 hours. The procedure:
as §1, §2

The subject of another data set is Staphylococcus aureus. Briefly: Agar dilution MIC. Type of data set: cell-based. The note with it: 18 h. The method, then:
as §1, §2

The next data set relates to Klebsiella pneumoniae. The experiment in a line: Agar dilution MIC. Conditions: A No. 9664, 37° C., 18 hours. Type of data set: cell-based. The procedure: as §1, §2
The test system of a further data set is Streptococcus pneumoniae. The experiment in a line: Agar dilution MIC. Type of data set: cell-based. The note with it: A No. 9585, 37° C., 18 hours. The procedure: as §1, §2
In a further data set the test system is Bacillus subtilis. Briefly: Agar dilution MIC. Conditions: A No. 9506A, 37° C., 18 hours. Format: cell-based. The procedure:
as §1, §2

For the next data set, the system named is Escherichia coli. Briefly: Agar dilution MIC. Format: cell-based. Conditions: 18 h. The method, then: as §1, §2
The next data set concerns Streptococcus pyogenes. Briefly: Agar dilution MIC. Conditions: A No. 9604, 37° C., 18 hours. Type of data set: cell-based. The method, then: as §1, §2

Converted amounts (≈) assume the structure as drawn.

As a reminder, the MIC is the lowest concentration found to suppress growth.

For the molecule `CO[C@@H]1[C@H](O)[C@@H](O)[C@@H](O[C@H]2[C@H](Oc3cccc4c(=O)c5c(N)c(=O)c6ccc(C)c7c(=O)oc(c-5c67)c34)O[C@H](C)[C@H](O)[C@@H]2O)O[C@@H]1C` [Hayumicin C1, 5-amino-10-[[6-deoxy-2-O -(6-deoxy-4-O-methyl-α-D-galactopyranosyl)-β-D -galactopyranosyl]oxy]-1-methyl-4H -benzo[h]naphtho[8,1,2-cde][1]benzopyran-4,6,12-trione], in “Solubility”, the solubility in chloroform result is on record as “slightly soluble”, the solubility in dimethylsulfoxide entry was “soluble”, the solubility in ether result is on record as “practically insoluble” and the solubility in methanol result is recorded as “slightly soluble”. Besides, in the data set “Solubility”, the solubility in n-hexane entry is listed as “practically insoluble”, the solubility in pyridine result is on record as “soluble” and the solubility in water result is “practically insoluble”. In the data set with tumors, the antitumor activity entry was “antitumor activity”. Also, the antibiotic activity entry in data set [1] is listed as “possess antibiotic activity”.

Consider `CO[C@@H]1[C@@H](O)[C@@H](O[C@H]2[C@H](Oc3cccc4c(=O)c5c(O)c(=O)c6ccc(C)c7c(=O)oc(c-5c67)c34)O[C@H](C)[C@H](O)[C@@H]2O)O[C@H](C)[C@@H]1OC` [Hayumicin A, 10-[[6-deoxy-2-O-(6-deoxy-3,4-di-O-methyl-α-D-galactopyranosyl)-β-D -galactopyranosyl]oxy]-5-hydroxy-1-methyl-4H -benzo[h]naphtho[8,1,2-cde][1]benzopyran-4,6,12-trione], for which, in “Solubility”, the solubility in chloroform result is recorded as “slightly soluble”. The solubility in dimethylsulfoxide result in “Solubility” is on record as “readily soluble”. For the same molecule, the solubility in methanol result in “Solubility” is given as “slightly soluble”. In “Solubility”, the solubility in n-hexane result is on record as “insoluble”. Also, the solubility in pyridine entry in the data set “Solubility” is recorded as “readily soluble”. Besides, in the data set “Solubility”, the solubility in water entry was “insoluble”. Besides, the minimum inhibitory concentration (MIC) with Klebsiella oxytoca is greater than 128 µg/mL; with Pseudomanas aeruginosa, greater than 128 µg/mL; in the data set on Streptococcus agalactiae, 8 µg/mL (≈ 12 µM); against Micrococcus luteus it was 1 µg/mL (≈ 1.5 µM); in the data set on Proteus mirabilis, greater than 128 µg/mL; with Staphylococcus aureus (A No. 9537, 37° C.), 64 µg/mL (≈ 96 µM). The minimum inhibitory concentration (MIC) in the data set on Staphylococcus aureus (A No. 9606, 37° C.) is 128 µg/mL (≈ 192 µM); in the data set with Staphylococcus aureus (A No. 24227, 37° C.), 128 µg/mL (≈ 192 µM); in the data set with Klebsiella pneumoniae, greater than 128 µg/mL; against Streptococcus pneumoniae, 16 µg/mL (≈ 24 µM); against Bacillus subtilis it was 32 µg/mL (≈ 48 µM); against Escherichia coli (A No. 20697, 37° C.), greater than 128 µg/mL. Moreover, the MIC in the data set with Escherichia coli (A No. 22292, 37° C.) was 16 µg/mL (≈ 24 µM); in the data set on Escherichia coli (A No. 28290, 37° C.), greater than 128 µg/mL; in the data set with Streptococcus pyogenes it was 8 µg/mL (≈ 12 µM). The antitumor activity result with tumors was “antitumor activity”. For the same molecule, in [1], the antibiotic activity entry is reported as “possess antibiotic activity”.

In the case of `CO[C@H]1[C@@H](O)[C@@H](C)O[C@H](O[C@H]2[C@H](Oc3cccc4c(=O)c5c(N)c(=O)c6ccc(C)c7c(=O)oc(c-5c67)c34)O[C@H](C)[C@H](O)[C@@H]2O)[C@@H]1O` [Hayumicin C2, B-amino-10-[[6-deoxy-2-O -(6-deoxy-3-O-methyl-α-D-galactopyranosyl)-β-D -galactopyranosyl]oxy]-1-methyl-4H -benzo[h]naphtho[8,1,2-cde][1]benzopyran-4,6,12-trione], in “Solubility”, the solubility in chloroform result is reported as “slightly soluble”, the solubility in dimethylsulfoxide result is listed as “soluble”, the solubility in ether entry is listed as “practically insoluble” and the solubility in methanol entry is given as “slightly soluble”. Besides, in the data set “Solubility”, the solubility in n-hexane entry is “practically insoluble”, the solubility in pyridine result was “soluble” and the solubility in water entry is given as “practically insoluble”. The antitumor activity result with tumors is on record as “antitumor activity”. In data set [1], the antibiotic activity entry is reported as “possess antibiotic activity”.

As for `CO[C@@H]1[C@@H](O)[C@@H](O[C@H]2[C@H](Oc3cccc4c(=O)c5c(N)c(=O)c6ccc(C)c7c(=O)oc(c-5c67)c34)O[C@H](C)[C@H](O)[C@@H]2O)O[C@H](C)[C@@H]1OC` [Hayumicin B, 5-amino-10-[[6-deoxy-2-O -(6-deoxy-3,4-di-O-methyl-α-D-galactopyranosyl)-β-D -galactopyranosyl]oxy]-1-methyl-4H -benzo[h]naphtho[8,1,2-cde][1]benzopyran-4,6,12-trione], the solubility in chloroform result in the data set “Solubility” is “slightly soluble”. Moreover, in “Solubility”, the solubility in dimethylsulfoxide result was “readily soluble”. The solubility in methanol entry in the data set “Solubility” is given as “slightly soluble”. In “Solubility”, the solubility in n-hexane result was “insoluble”. Also, the solubility in pyridine result in “Solubility” is “readily soluble”. Besides, in the data set “Solubility”, the solubility in water entry was “insoluble”. For the same molecule, the MIC is greater than 128 µg/mL with Klebsiella oxytoca; greater than 128 µg/mL against Pseudomanas aeruginosa; 8 µg/mL (≈ 12 µM) in the data set on Streptococcus agalactiae; 1 µg/mL (≈ 1.5 µM) against Micrococcus luteus; greater than 128 µg/mL with Proteus mirabilis; 64 µg/mL (≈ 96.1 µM) against Staphylococcus aureus (A No. 9537, 37° C.). Moreover, the MIC with Staphylococcus aureus (A No. 9606, 37° C.) is 128 µg/mL (≈ 192 µM); against Staphylococcus aureus (A No. 24227, 37° C.) it was 128 µg/mL (≈ 192 µM); in the data set with Klebsiella pneumoniae, greater than 128 µg/mL; against Streptococcus pneumoniae, 8 µg/mL (≈ 12 µM); in the data set on Bacillus subtilis, 4 µg/mL (≈ 6.01 µM); with Escherichia coli (A No. 20697, 37° C.), greater than 128 µg/mL. The MIC against Escherichia coli (A No. 22292, 37° C.) is 128 µg/mL (≈ 192 µM); against Escherichia coli (A No. 28290, 37° C.), greater than 128 µg/mL; against Streptococcus pyogenes, 8 µg/mL (≈ 12 µM). Besides, the antitumor activity entry with tumors is recorded as “antitumor activity”. In addition, in [1], the antibiotic activity entry is reported as “possess antibiotic activity”.

`Cc1ccc2c(=O)c(N)c3c(=O)c4cccc(O[C@@H]5O[C@H](C)[C@H](O)[C@H](O)[C@H]5O[C@H]5O[C@H](C)[C@H](O)[C@H](O)[C@H]5O)c4c4oc(=O)c1c2c4-3` [Hayumicin D, 5-amino-10-[[6-deoxy-2-O -(6-deoxy-α-D-galactopyranosyl)-β-D -galactopyranosyl]oxy]-1-methyl-4H -benzo[h]naphtho[8,1,2-cde][1]benzopyran-4,6,12-trione]: in the data set “Solubility”, the solubility in chloroform result is listed as “slightly soluble”, the solubility in dimethylsulfoxide entry is recorded as “soluble”, the solubility in ether entry was “practically insoluble” and the solubility in methanol result was “slightly soluble”. Further, in the data set “Solubility”, the solubility in n-hexane result was “practically insoluble”, the solubility in pyridine result is “soluble” and the solubility in water result is “practically insoluble”. Further, the antitumor activity entry in the data set on tumors is listed as “antitumor activity”. Moreover, in data set [1], the antibiotic activity result is “possess antibiotic activity”.

The values are drawn from US5639735A, “Antitumor antibiotic compounds: hayumicins and analogs thereof” (Bristol-Myers Squibb Company, priority 1994, dated 1997).
